According to patent US20180214560A1, “HPMA-DRUG CONJUGATES FOR THE TREATMENT OF ACUTE MYELOID LEUKEMIA” (University of Utah Research Foundation, priority 2015, published 2018):
Read-outs that look alike come from different tables or passages of the source.

Columns and labels:
HL-60 human AML cells = assay: In vitro cytotoxicity (CCK-8 assay); type: cell-based
Method: The cytotoxicity of free drugs (CYT, DAU, GDC, and JSK) and two polymeric conjugates (P-CYT, P-GDC) against HL-60 was measured using the CCK-8 assay (Dojindo, Kumamoto, Japan). The cells were seeded in 96-well plates at a density of 20,000 cells/well in RPMI-1640 media containing 2 mM L-glutamine and 10% FBS. Then, 50 μL media containing the drugs were added. The cells were incubated with free drugs (CYT, DAU, GDC, and JSK) or the polymeric conjugates (P-CYT, P-GDC) at a range of drug concentrations. After 48 h incubation, the number of viable cells was estimated using the CCK-8 kit according to manufacturer's protocol. After the cells were incubated with the reagent at 37° C. for 4 h, the absorbance was measured using a microplate reader at 450 nm (630 nm as reference). Viability of treated cells was calculated as a percentage of the viability of untreated controls.

HL-60 cells = assay: Cell cycle analysis by flow cytometry (propidium iodide); type: cell-based, human; conditions: 48 h; CYT=1 μM; DAU=0.04 μM; GDC=1 μM; JSK=0.5 μM
Method: HL-60 cells (2×10^5 cells/mL) were seeded in 6-well plates, and treated with drug alone or different combinations of two drugs at the following concentrations for each: […] JSK=0.5 μM. Following 48-h treatment, cells were harvested, fixed and stained with propidium iodide (PI) at room temperature in the dark. Cell cycle analysis was performed by flow cytometry using BD LSR Fortessa machine (BD Biosciences, San Jose, Calif.). Cell percentages in the different phases of cell cycle were analyzed using FlowJo software (Tree star, Ashland, Oreg.).

[1] = cited from earlier work
[2] = 37 °C, after 48 h, 100 μg CYT/mL
Method: The stability of free and HPMA copolymer-bound cytarabine in human plasma was evaluated. […] At selected time points, 5 μL tetrahydrouridine (THU, 1 mg/mL in DI H2O, used as inhibitor of cytidine deaminase to prevent cytarabine from deamination) was added to a vial containing 100 μL sample. For free drug, 1 mL of mixture of acetonitrile/methanol (9:1) was added to precipitate proteins. The vial was vortex-mixed and then centrifuged at 13,000 g for 10 min at 4° C. The supernatant was carefully transferred into a 2 mL vial that was placed into a 40° C. water bath and bubbled with nitrogen. After organic solvents were removed, the resulting dry residue was dissolved in 0.5 mL DI H2O with 0.1% TFA. The sample was filtered and then 10 μL was injected to an analytical C18 column (Zorbax 300SB, 5 μm, 4.6×250 mm) for HPLC analysis. The amount of intact CYT was calculated based on the area under the curve (AUC) recorded at 268 nm wavelength and calibration curve from a series of standard CYT concentrations. To determine the CYT stability in conjugate, 1-amino-2-propanol (10 μL) was added to the sample prior to plasma precipitation in order to cleave CYT from polymer backbone. Then the sample was examined following the same procedure as described above.

[3] = humans; P-DOX in DOX equivalent; cited from earlier work
[4] = system: DOX resistant (A2780/AD) human ovarian carcinoma xenografts; conditions: resistant tumors (A2780/AD); cited from earlier work
[5] = Homo sapiens, HL-60 cells, 48 h incubation, read-out: IC50

Row | Structure (SMILES) | Change of G0/G1 phase population (HL-60 cells) | Change of G2/M phase population (HL-60 cells) | IC50 (HL-60 human AML cells; [5]) [nM] | Change of S phase population (HL-60 cells) | further results
1 | COc1cccc2c1C(=O)c1c(O)c3c(c(O)c1C2=O)C[C@@](O)(C(C)=O)C[C@@H]3O[C@H]1C[C@H](N)[C@H](O)[C@H](C)O1 [DAU, daunorubicin] | decrease in the G0/G1 population | accumulate in the G2/M phase | – | – | IC50 (HL-60 human AML cells; Homo sapiens, HL-60, 48 h): 40 nM
2 | Cc1c(CN2CCN(C(=O)[C@H](C)O)CC2)sc2c(N3CCOCC3)nc(-c3cnc(N)nc3)nc12 [GDC, GDC-0980] | slight increase in the G0/G1 phase population | – | 750 | – | Solubility of free GDC [1]: poor solubility
3 | Nc1ccn([C@@H]2O[C@H](CO)[C@@H](O)[C@@H]2O)c(=O)n1 [CYT, cytarabine] | decrease in the G0/G1 population | – | 1050 | arrested the cells in S phase | CYT still present in human plasma [2]: all free drug disappeared
4 | COc1cccc2c1C(=O)c1c(O)c3c(c(O)c1C2=O)C[C@@](O)(C(=O)CO)C[C@@H]3O[C@H]1C[C@H](N)[C@H](O)[C@H](C)O1 [DOX, doxorubicin] | – | – | – | – | Maximum tolerated dose (MTD) [3]: 60-80 mg/m2; Decrease of tumor size [4]: effective only in sensitive tumors
5 | CCOC(=O)N1CCN(/[N+]([O-])=N/Oc2ccc([N+](=O)[O-])cc2[N+](=O)[O-])CC1 [JSK, JS-K] | decrease in the G0/G1 population | did not make significant changes in those fractions | – | did not make significant changes in those fractions | IC50 (HL-60 human AML cells; HL-60 cells, 48 h incubation, read-out: IC50): 440 nM
